Test results: ChEMBL document CHEMBL1201862, “PubChem BioAssay data set” (2004)
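How tested: cells in 96-well plates exposed to compound for 48 hours at five concentrations. GI50 marks 50% less growth.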 Calls of active or inactive are those of the source. No stated cut-off is given here; in the data, active = GI50 up to about 1.1 µM and inactive = higher.

Key:
Experiment in all cases: DTP human tumour cell line panel, 48 h
[1] = tested on: OVCAR-3
[2] = tested on: EKVX
[3] = tested on: MOLT-4
[4] = tested on: HCT-116
[5] = tested on: SK-MEL-2
[6] = tested on: SN12C
[7] = tested on: UACC-257
[8] = tested on: U-251
[9] = tested on: HCC 2998
[10] = tested on: UO-31
[11] = tested on: NCI/ADR-RES
[12] = tested on: SNB-19
[13] = tested on: UACC-62
[14] = tested on: A549
[15] = tested on: NCI-H23
[16] = tested on: HCT-15
[17] = tested on: NCI-H226
[18] = tested on: SF-268
[19] = tested on: Hs-578T
[20] = tested on: KM12

Row | Structure (SMILES) | GI50 [1] | GI50 [2] | GI50 [3] | GI50 [4] | GI50 [5] | GI50 [6] | GI50 [7] | GI50 [8] | GI50 [9] | GI50 [10] | GI50 [11] | GI50 [12] | GI50 [13] | GI50 [14] | GI50 [15] | GI50 [16] | GI50 [17] | GI50 [18] | GI50 [19] | GI50 [20]
1 | COC1/C=C\C=C(/C)C(=O)NC2=CC(=O)C(N)=C(CC(C)CC(OC)C(O)C(C)C=C(C)C1OC(N)=O)C2=O (stereo not given) | 0.0681 µM (active) | 3.97 µM (inactive) | 0.15 µM (active) | 0.0233 µM (active) | < 0.01 µM (active) | 0.017 µM (active) | 0.03 µM (active) | < 0.01 µM (active) | 0.0268 µM (active) | 0.184 µM (active) | 28.7 µM (inactive) | 0.0424 µM (active) | 0.0247 µM (active) | 0.0216 µM (active) | < 0.0212 µM (active) | 0.333 µM | 5.87 µM (inactive) | 0.419 µM (active) | < 0.01 µM (active) | 0.0244 µM (active)
2 | CC(C)(NC1=NCCO1)c1ccccc1 | > 100 µM (inactive) | > 100 µM (inactive) | > 100 µM (inactive) | > 100 µM (inactive) | > 100 µM (inactive) | > 100 µM (inactive) | > 100 µM (inactive) | > 100 µM (inactive) | > 100 µM (inactive) | > 100 µM (inactive) | > 100 µM (inactive) | 43.4 µM (inactive) | > 100 µM (inactive) | > 100 µM (inactive) | > 100 µM (inactive) | > 100 µM | > 100 µM (inactive) | > 100 µM (inactive) | > 100 µM (inactive) | > 100 µM (inactive)
3 | C(=N\c1ccc(-c2nc3ccccc3s2)cc1)/c1ccc[nH]1 | 14.7 µM (inactive) | 17.2 µM (inactive) | 11.7 µM (inactive) | 16.1 µM (inactive) | 17.3 µM (inactive) | 19.5 µM (inactive) | 17.1 µM (inactive) | 14.4 µM (inactive) | 16.5 µM (inactive) | 17.4 µM (inactive) | 13.3 µM (inactive) | 29.4 µM (inactive) | 15.6 µM (inactive) | 25.6 µM (inactive) | 16.8 µM (inactive) | 13.6 µM | 14.8 µM (inactive) | 15.5 µM (inactive) | 19.7 µM (inactive) | 20.2 µM (inactive)
